Assay results from US20250085285A1, “Methods for Generating Biologically Specific Chromatin Condensates and Uses Thereof” (The Regents of the University of California, priority 2022, published 2025).

Target: T1, HP1α-chromatin condensates (Homo sapiens, UniProt P45973)
T1 construct: 6x-His (cleaved yes); made in house; host or cells: E. coli Rosetta BL21 (DE3)
Assay: HP1α-chromatin condensate in vitro droplet assay / screening (fluorescence imaging)
Type: biochemical
Settings: FIG. 6; interaction partner added to HP1α-chromatin condensates
Experimental: HP1α was diluted to the desired 2× concentration. HP1αKCK was added to HP1α at a ratio of 1:500 HP1α: HP1αKCK for evident fluorescent signal. HP1α-chromatin droplets were formed at 40 nM nucleosome array concentration in 20 mM HEPES pH 7.5, 0.1 mM EDTA and 2× HP1α-HP1αKCK in 20 mM HEPES pH 7.2, 150 mM KCl 1 mM DTT. 10 μL of 80 nM nucleosome arrays (2×) was mixed with 10 μl 2× HP1α-HP1αKCK and incubated at room temperature for 20 minutes before transferring to a glass bottom 384 well plate for imaging.
384 well glass bottom plates (Greiner Sensoplate 781892) were prepared for sample examination as follows: The wells were rinsed three times with 100 μl water, incubated with 100 μl of 2% Hellmanex for 30 mins-1 hour, rinsed with water three times again, incubated with 100 μl of 0.5M NaOH for 30 mins, rinsed with water three times, and then 70 μl of 20 mg/ml mPEG-silane dissolved in 95% EtOH was added to coat the wells. The plate was covered with foil and left overnight at 4° C.
After the overnight, the wells were rinsed with 95% EtOH five times, followed by incubation with 100 mg/ml BSA for 2 hours. Then, the wells were rinsed three times with water and three times with 1× phasing buffer afterwards (20 mM HEPES pH 7.2, 75 mM KCl, 0.05 mM EDTA, 0.5 mM DTT). After, the condensates are added to each well.
To conduct droplet assays at scale, arrays assembled with 540 μg fluorescently labeled array DNA and 1.3 mg of fluorescently labeled HP1α were needed for one 384 well plate. 384 well plates were washed and coated in mPEG-silane in bulk using the Biotek EL406 washer dispenser. HP1α-array droplets were screened against a Bioactive compound library (Selleck Chemicals). These compounds were diluted in 1× phasing buffer (20 mM HEPES pH 7.2, 75 mM KCl, 0.05 mM EDTA, 0.5 mM DTT), and added to the wells for a final concentration of 10 μM in the reaction. The droplets and compounds were dispensed in the 384 wells using the Biomek-FX.
After 3-4 hours of settling to the bottom of the plate, the condensates were imaged on the IN Cell Analyzer 6500HS equipped with a Nikon Plan Apo 40×/0.95NA objective and sCMOS camera. Five field of views per channel were taken per well. Image analysis was conducted using a custom pipeline written in Python using NumPy and SciPy SciKit libraries. Classical image segmentation and quantification techniques were implemented to identify droplets and characterize their geometry, fluorescent intensity, and consequently the effectiveness of the small molecules on the droplets.

T1 sequence (P45973 whole entry): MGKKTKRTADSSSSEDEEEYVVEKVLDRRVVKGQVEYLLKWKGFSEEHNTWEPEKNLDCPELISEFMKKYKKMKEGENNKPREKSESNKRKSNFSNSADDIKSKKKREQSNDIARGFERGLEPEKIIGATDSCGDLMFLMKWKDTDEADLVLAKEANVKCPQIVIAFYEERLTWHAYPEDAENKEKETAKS

Compound | Effect of biologically relevant interaction partners on HP1α-chromatin condensate formation
HP1β: heterochromatin protein, biologically relevant interaction partner of HP1α-chromatin condensates | dissolves condensates, making them disappear or smaller

Same assay, conditions: FIG. 7; Bioactive compound library (Selleck Chemicals), final concentration of 10 μM; H3K9me3 nucleosome arrays

Effect of bioactive small molecules on HP1α-chromatin condensates | Compound
dissolve condensates | CN(C)CCN1C(=O)c2cccc3cc(N)cc(c23)C1=O [Amonifide]
enhance condensate formation | C#Cc1cccc(Nc2ncnc3cc(OCCOC)c(OCCOC)cc23)c1 [Erlotinib]
mild or no effect | CS(=O)(=O)CCNCc1ccc(-c2ccc3ncnc(Nc4ccc(OCc5cccc(F)c5)c(Cl)c4)c3c2)o1 [Lapatinib ditosylate]
enhance condensate formation | CS(=O)(=O)c1ccc(C(=O)Nc2ccc(Cl)c(-c3ccccn3)c2)c(Cl)c1 [Vismodegib]
dissolve condensates | CC(c1cc2ccccc2s1)N(O)C(N)=O (stereo not drawn) [Zileuton]
